Experiments:
[1] = Volatility of perfuming compounds (Tables 4 to 10), with top/middle/bottom note type; format: physicochemical
Method: In some aspects, the first perfume accord comprises perfuming compounds having a volatility ranging from 70,000 to 100 μg/l in air. In some aspects, perfuming compounds having a volatility ranging from 70,000 to 100 μg/l in air are referred to as “top notes”.
In some aspects, the second perfume accord comprises perfuming compounds having a volatility ranging from 99 to 50 μg/l in air. In some aspects, perfuming compounds having a volatility ranging from 99 to 50 μg/l in air are referred to as “middle notes”.
In some aspects, the third perfume accord comprises perfuming compounds having a volatility ranging from 49 to 0.1 μg/l in air. In some aspects, perfuming compounds having a volatility ranging from 49 to 0.1 μg/l in air are referred to as “bottom notes”.
Tables 4 to 10 describe top, middle and bottom note perfuming compounds for watery, green, fruity, citrus, sweet, gourmand and woody notes respectively.

[2] = Odor threshold and odor value of perfuming compounds (Tables 4 to 10)
[3] = Table 10, perfuming compounds having a woody note, note type by volatility
[4] = Table 9, perfuming compounds having a gourmand note, note type by volatility
[5] = Table 6, perfuming compounds having a fruity note
[6] = Table 6, perfuming compounds having a fruity note, note type by volatility
[7] = note type (Top/Middle/Bottom) by volatility, perfuming compounds having a green note
[8] = perfuming compounds having a green note
[9] = Table 7, citrus note, top, middle or bottom note
[10] = Table 7, citrus note, equals volatility divided by odor threshold
[11] = Table 8, perfuming compounds having a sweet note
[12] = Table 8, perfuming compounds having a sweet note, note type by volatility

In the case of `CCCC(O)CCC1C(C)CCC(C)C1(C)C` (racemic), the Type [1, 3] is reported as “Bottom”, the Volatility ([1]; Table 10, woody note) is reported as 3.42 μg/l air and the “Odor Threshold” value ([2]; Table 10, woody note) is reported as 4.05E−04 μg/l air.

In the case of `CC(=O)OCCC1CCCCC1` [2-CYCLOHEXYLETHYL ACETATE], the Volatility ([1]; Table 9, gourmand note) is reported as 489.45 μg/l air, the Type [1, 4] is reported as “Top” and the “Odor Threshold” value ([2]; Table 9, gourmand note) is reported as 4.49E−02 μg/l air.

In the case of `CC(C)(C)C1CCC(=O)CC1` [4-(2-methyl-2-propanyl)cyclohexanone], the Type [1, 3] is reported as “Top”, the Volatility ([1]; Table 10, woody note) is reported as 755.28 μg/l air and the “Odor Threshold” value ([2]; Table 10, woody note) is reported as 1.15E−01 μg/l air.

For `CCCCCC/C=C/C(=O)OC` [methyl (2E)-2-nonenoate], the Volatility [1, 5] was 264.84 μg/l air, the Type [1, 6] was “TOP (perfuming compounds having a volatility ranging from 70,000 to 100 μg/l in air are referred to as “top notes”)” and the Type [1, 7] was “Top”. For the same compound, the “Volatility (μg/l air)” value [1, 8] was 264.84 μg/l air and the “Odor Threshold (μg/l air)” value [2, 8] was 5.84E−02 μg/l air.

In the case of “(2RS,4SR)-4-methyl-2-phenyltetrahydro-2H-pyran (A) + (2RS,4RS)-4-methyl-2-phenyltetrahydro-2H-pyran (B)”, the “Volatility (μg/l air)” value ([1]; Table 7, citrus note) is reported as 99.84 μg/l air, the Type [1, 9] is reported as “Middle” and the “Odor Threshold (μg/l air)” value ([2]; Table 7, citrus note) is reported as 1.04E−03 μg/l air. The “Odor Value” [2, 10] was 9.61E+04.

For `CC1CC(C)(c2ccccc2)OC(C)O1` (stereo not drawn), the Volatility [1, 5] was 113.83 μg/l air, the Type [1, 6] was “TOP (perfuming compounds having a volatility ranging from 70,000 to 100 μg/l in air are referred to as “top notes”)” and the “Odor Threshold” value [2, 5] was 7.82E−03 μg/l air. The “Odor Value” [2, 5] was 1.46E+04.

In the case of `CCOC(=O)C(=O)C(C)CC` (racemic) [(+−)-ETHYL 3-METHYL-2-OXOPENTANOATE], the Volatility [1, 11] is reported as 2276.17 μg/l air, the Type [1, 12] is reported as “Top” and the Type [1, 7] is reported as “Top”. The “Volatility (μg/l air)” value [1, 8] was 2276.17 μg/l air, the “Odor Threshold” value [2, 11] was 5.06E−04 μg/l air and the “Odor Value” [2, 11] was 4.50E+06. The “Odor Threshold (μg/l air)” value [2, 8] was 5.06E−04 μg/l air.

With `CC/C=C\CC1=C(C)CCC1=O` the Volatility [1, 11] was 56.72 μg/l air, the Type [1, 12] was “Middle” and the Volatility ([1]; Table 9, gourmand note) was 56.72 μg/l air. The Type [1, 4] was “Middle”, the “Odor Threshold” value [2, 11] was 2.16E−04 μg/l air and the “Odor Value” [2, 11] was 2.63E+05. The “Odor Threshold” value ([2]; Table 9, gourmand note) was 2.16E−04 μg/l air.

With `CC(=O)OC(c1ccccc1)C(Cl)(Cl)Cl` (racemic) [(+−)-2,2,2-TRICHLORO-1-PHENYLETHYL ACETATE] the Volatility [1, 5] was 11.96 μg/l air, the Type [1, 6] was “Bottom” and the “Volatility (μg/l air)” value ([1]; Table 7, citrus note) was 11.96 μg/l air. For the same compound, the Type [1, 9] was “Bottom”, the “Odor Threshold” value [2, 5] was 1.15E−03 μg/l air and the “Odor Value” [2, 5] was 1.04E+04. For the same compound, the “Odor Threshold (μg/l air)” value ([2]; Table 7, citrus note) was 1.15E−03 μg/l air and the “Odor Value” [2, 10] was 1.04E+04.

In the case of `COc1nccnc1CCCC(C)C`, the Type [1, 7] is reported as “Top”, the “Volatility (μg/l air)” value [1, 8] is reported as 195.24 μg/l air and the “Odor Threshold (μg/l air)” value [2, 8] is reported as 1.18E−07 μg/l air.

With `CC(=O)OCCC1CCCCC1` [2-CYCLOHEXYL ETHYL ACETATE] the Volatility [1, 5] was 489.45 μg/l air, the Type [1, 6] was “TOP (perfuming compounds having a volatility ranging from 70,000 to 100 μg/l in air are referred to as “top notes”)” and the Volatility [1, 11] was 489.45 μg/l air. The Type [1, 12] was “Top”, the “Odor Threshold” value [2, 11] was 4.49E−02 μg/l air and the “Odor Value” [2, 11] was 1.09E+04.

With `CCCCCCC#CC(=O)OC` [METHYL 2-NONYNOATE] the “Volatility (μg/l air)” value ([1]; Table 4, watery note) was 91.76 μg/l air, the Type ([1]; Table 4, watery note, top, middle or bottom note) was “middle (perfuming compounds having a volatility ranging from 99 to 50 μg/l in air are referred to as “middle notes”)” and the Type [1, 7] was “Middle”. For the same compound, the “Volatility (μg/l air)” value [1, 8] was 91.76 μg/l air, the “Odor Threshold (μg/l air)” value ([2]; Table 4, watery note) was 1.60E−03 μg/l air and the “Odor Value” ([2]; Table 4, watery note, equals volatility divided by odor threshold) was 5.74E+04. The “Odor Threshold (μg/l air)” value [2, 8] was 1.60E−03 μg/l air.

For `CCCCCCCC1CCC(=O)O1` (racemic) [(+−)-5-heptyldihydro-2(3H)-furanone], the “Odor Threshold” value [2, 5] was 3.16E−05 μg/l air, the “Odor Value” [2, 5] was 1.16E+05 and the “Odor Threshold” value [2, 11] was 3.16E−05 μg/l air. The “Odor Value” [2, 11] was 1.16E+05 and the “Odor Threshold” value ([2]; Table 9, gourmand note) was 3.16E−05 μg/l air.

For `CC(C)CC(=O)O` [3-METHYLBUTANOIC ACID], the “Odor Threshold” value ([2]; Table 10, woody note) was 2.23E−04 μg/l air.
